According to patent publication US20260250269A1, “APOPTOSIS INHIBITOR SALTS FOR CANCER” (priority 2022, published 2026):

How the values were obtained:
Caspase-3 = Caspase-3 protein expression in xenografted SU-DHL-10 tumor (Western blot); type: in vivo, mouse; conditions: Form A, single i.m. injection 11.2 mg/kg, 24 hours post dosing, versus vehicle
Procedure: The pamoate was administrated via single intramuscular (i.m.) injection to SU-DHL-10 xenografted mice to examine the effect of the pamoate on c-Myc expression level in tumor at the 24-hour time point post injection.
The pamoate was mixed with appropriate volume of vehicle solution (0.5% carboxymethylcellulose sodium (CMC-Na, viscosity 400-800 cps, CAS No. 9004-32-4, Sigma-Aldrich, USA) and 0.2% Tween-80 in 10 mM pH 7.4 phosphate buffer saline (PBS)) to get a uniform suspension after 15 min sonication, with final concentration of 5.6 mg/mL. The dose volume was determined by the mice′ body weight collected on the morning of dosing day, calculated by the formula: dose volume (2 mL/kg)×body weight.
Human diffuse large B cell lymphoma cell line SU-DHL-10 was obtained from Cobioer Biotechnology Co., Ltd (China). […]
The tumor was excised with scissors, resuspended in cold cell lysis buffer containing 20 mM Tris (pH7.5), 150 mM NaCl, 1% Triton X-100, 2 mM AEBSF, […] Aprotinin, 130 μM Bestatin, 14 μM E64, 10 μM Leupeptin, 5 mM sodium fluoride, 1 mM sodium pyrophosphate, 1 mM β-glycerophosphate and 1 mM sodium orthovanadate, and then homogenized with handheld homogenizer (Beyotime, China). […] Protein contents were determined using Micro BCA™ Protein Assay Kit (23235, Thermo Scientific, USA). […] Visualization was carried out using the Enhanced Chemi-luminescence Kit (Beyotime, China).

[1] = tested on: SU-DHL-10 human diffuse large B cell lymphoma xenograft; experiment: Anti-tumor activity against SU-DHL-10 xenograft; type: in vivo, BALB/c nude mice
Procedure: For the monobromide continuous i.v. infusion group, the monobromide was dissolved with physiological saline to prepare 12.12 mg/mL clear solution.
For the monobromide i.p. injection group, the monobromide was dissolved with physiological saline to prepare 0.41 mg/mL clear solution. The dose volume was determined by the mice′ body weight collected on the morning of dosing day, calculated by the formula: dose volume (10 mL/kg)×body weight.
For the pamoate i.m. injection group, the pamoate salt was mixed with appropriate volume of vehicle solution (0.5% CMC-Na (viscosity 400-800 cps, CAS No. 9004-32-4), 0.2% Tween-80 in 10 mM pH 7.4 PBS saline) to get a uniform suspension after 15 min sonication, with final concentration of 5.6 mg/mL, similar to the procedure described in Example 14. The dose volume was determined by the mice′ body weight collected on the morning of dosing day, calculated by the formula: dose volume (2 mL/kg)×body weight.
Human diffuse large B cell lymphoma cell line SU-DHL-10 was obtained from Cobioer Biotechnology Co., Ltd (China). The cells were cultured at 37° C. with 5% CO2 in RPMI-1640 (Hyclone, USA) supplemented with 10% heat inactivated fetal bovine serum (Gibco, USA) and 1% GlutaMAX (Gibco, USA). The cells were collected, suspended in PBS at 2×10^8 cells/mL, and then mixed with the equivalent volume of Matrigel® Basement Membrane Matrix (Corning, USA).
Six-week-old female BALB/c-nude mice were purchased from SPF Biotechnology Co., Ltd. (Beijing, China). They were maintained on a standard diet and water throughout the experiments under specific pathogen-free conditions. The cells were cultured in vitro and 0.1×10^8 cells/0.1 mL/mouse were grafted subcutaneously into the flank of NOD-SCID (NVSG) mice (Beijing Viewsolid Biotech Co. LTD), 6-week-old. When the tumor reached about 1 cm in diameter, tumor-bearing mice were sacrificed and tumors were removed and sliced into small fragments (approximately 3×3×3 mm^3/fragment) and re-inoculated into BALB/c nude mice. The mice with a tumor volume (length×width^2×0.5) of 99.28 to 247.10 mm^3 were divided into four groups randomly, using Study Director Software (Studylog Systems, Inc, Version 3.1.399.22, USA) to minimize intragroup and intergroup tumor volume variation.
The first day of administration was designated day 0, and observation continued until day 35. Each group was treated as follows (Table 15).
The vehicle control group received i.m. injection of vehicle solution on day 0, 7 and 14 (Group 1). For 21-day continuous i.v. infusion, an osmotic pump containing the monobromide was implanted in the dorsum of each animal while under anesthesia on day 0, with daily dose of […], approximately 1.6 mg/kg/day (Group 2). The monobromide i.p. injection group was administrated referring to FIVE-DAY-ON, TWO-DAY-OFF procedure on day 0-4, 7-11 and 14-18 (Group 3) per Minoda et. al, Antitumor effect of YM155, a novel small-molecule survivin suppressant, via mitochondrial apoptosis in human MFH/UPS, International Journal of Oncology, 2015, 47:891-899. For the pamoate i.m. injection group, drug suspension was administrated once per week at 11.2 mg/kg, approximately 7 times daily dosage of the monobromide i.v. infusion group, on day 0, 7 and 14 (Group 4).

[2] = pH of about 7.4
[3] = Photostability test (ICH Option 1, ID65 light)
Procedure: Purity via HPLC, XRPD, and appearance inspection were performed before and after light exposure to determine photostability of the two compounds.
Light source—ICH Option 1 light source standard was adopted. ID65 light, equivalent indoor indirect daylight standard, with 250 W/m^2 light source intensity was used.
Total light exposure and light exposure time−total light exposure was set to 1.44 million lux light quantity (1000 lux×24 h×60 d=1,440,000 lux light quantity). Light stability testing box with ID65 light source of 250 W/m^2 intensity was adopted. According to ICH Option 1 standard, 21.8 hours light exposure could reach 1.2 million lux light quantity. Therefore, 26.2 hours light exposure is needed to reach 1.44 million lux quantity.
Testing—Accurately weight 0.5 g of the monobromide and the pamoate, place in petri dishes (covered with clear wrap film) and spread into a layer no more than 3 mm thickness, separately. Samples were put into light stability testing box, and received total amount of light exposure not less than 1.44 million lux light quantity (ID65 light, 250 W/m^2, 26.2 hours, 25° C., 60% relative humidity). After light exposure, samples were removed for characterization, including appearance inspection, XRPD and purity via HPLC.

[4] = Body weight in SU-DHL-10 xenografted mice; conditions: for Mean Body Weight ± SEM: Group 4: Form A, 11.2 mg/kg i.m. Day 0, 7, 14
[5] = Group 4: Form A, 11.2 mg/kg i.m. Day 0, 7, 14, Day 21
[6] = Group 4: Form A, 11.2 mg/kg i.m. Day 0, 7, 14, Day 35
[7] = ID65 light, 250 W/m^2, 25° C./60% RH (ICH Option 1), 26.2 hours
[8] = Initial, irradiation time 0 hours

## COCCn1c2c([n+](Cc3cnccn3)c1C)C(=O)c1ccccc1C2=O.COCCn1c2c([n+](Cc3cnccn3)c1C)C(=O)c1ccccc1C2=O.O=C([O-])c1cc2ccccc2c(Cc2c(O)c(C(=O)[O-])cc3ccccc23)c1O [pamoate salt]
Caspase-3
  Cleaved Caspase-3 expression in tumors: increased
  Full length Caspase-3 expression in tumors: decreased
[1]; Group 4: Form A, 11.2 mg/kg i.m. Day 0, 7, 14, Day 0
  Mean Tumor Volume ± SEM: 151.26 ± 23.65 mm^3
[1]; Group 4: Form A, 11.2 mg/kg i.m. Day 0, 7, 14, Day 7
  Mean Tumor Volume ± SEM: 0.00 ± 0.00 mm^3
[1]; [5]
  Antitumor Activity, percent inhibition of tumor growth (% inh): 118.27%
  Antitumor Activity, percent regression of the tumor (% reg): 100%
  Mean Tumor Volume ± SEM: 0.00 ± 0.00 mm^3
[1]; Group 4: Form A, 11.2 mg/kg i.m. Day 0, 7, 14, Day 28
  Mean Tumor Volume ± SEM: 23.61 ± 23.61 **^, N.S., $ mm^3
[1]; [6]
  Antitumor Activity, percent inhibition of tumor growth (% inh): 98.22%
  Antitumor Activity, percent regression of the tumor (% reg): −19.21%
  Mean Tumor Volume ± SEM: 180.32 ± 101.25 **^, N.S., $ mm^3
  Number of CRs (complete response): 3/6
[1]; SU-DHL-10 xenograft tumor model
  Safety and efficacy (in words): good safety and efficacy
[2]
  Aqueous solubility: less than 0.02 mg/mL
[3]; ICH Option 1 irradiation, 26.2 hours
  Photostability (in words): excellent photostability
[3]; [7]
  Description: Purple
  Purity % (HPLC): 99.38%
  XRPD: Consistent
[3]; [8]
  Description: Purple
  Purity % (HPLC): 99.29%
[3]; after ICH Option 1 irradiation, 26.2 hours
  Change in the appearance, XRPD and HPLC purity: no significant change
[4]; Day 21
  Mean Body Weight ± SEM: 21.43 ± 0.35 ^N.S. g
[4]; Day 35
  Mean Body Weight ± SEM: 22.65 ± 0.30 ^N.S. g
[4]; each group (Groups 2-4), until day 35
  Body weight decrease (in words): no statistically significant decrease in body weight
